The nature of assay [1]: Antioxidant effect (active oxygen scavenging) by NBT method. As to conditions: sample 0.1 weight %, absorbance 560 nm. Type of assay: biochemical. On the procedure:
In order to measure the antioxidant effect, active oxygen generated by xanthine and xanthine oxidase was measured by the NBT method, and an effect of removing active oxygen by a test substance, that is, the active oxygen scavenging effect was evaluated. Active oxygen was generated by xanthine and xanthine oxidase, and this active oxygen reacts with nitro blue tetrazolium (NBT). […] 0.1 ml of a xanthine oxidase solution was added and quickly stirred, culture at 25° C. for 20 minutes was started, 0.1 ml of a 6 mM CuCl2 solution was added to stop the reaction, and an absorbance St at 560 nm was measured. In a blank test, the same operation was performed in the same manner except that distilled water was used instead of the sample solution, and an absorbance Bt was measured. In a blank of the sample solution, the same operation was performed in the same manner except that the distilled water was used instead of xanthine oxidase, and an absorbance […] was measured. Inhibition rate (%)=[1−(St−So)/(Bt−Bo)]×100 <Equation 1> St: Absorbance at 560 nm after enzyme reaction of sample solution Bt: Absorbance at 560 nm after enzyme reaction of blank test solution So: Absorbance at 560 nm before reaction of sample solution in the absence of enzyme Bo: Absorbance at 560 nm before reaction of blank test solution in the absence of enzyme

Assay [2] can be described thus: Free radical scavenging activity by DPPH method. In kind it is biochemical. The conditions noted are these: sample 0.1 weight %, 30 minutes at 37° C. The method, then:
Each sample was prepared at the concentration of 0.1% to measure DPPH free radical scavenging activity. Each sample at the above concentration was introduced to a 96-well plate, and DPPH produced with a 100 uM methanol solution was added thereto, such that the total volume of the solution became 200 μl. The resultant was left for 30 minutes at 37° C., and an absorbance was measured at 560 nm. The free radical scavenging activity (%) was calculated by Equation 2 below. Free radical scavenging activity (%)=100−(B/A)×100 <Equation 2> A: Absorbance of control wells in the absence of sample treatment B: Absorbance of experimental wells with sample treatment

Assay [3] relates to Human keratinocytes HaCaT cell lines. Kind of assay: Intracellular active oxygen scavenging effect after UVB (DCFH-DA fluorescence). In kind it is cell-based. As to conditions: sample 0.01 weight %, UVB 20 mJ/cm^2. On the procedure:
Cell lines used in the experiment were the Human keratinocytes HaCaT cell lines distributed from Dr. Fusenig in German Cancer Research Center. […] Subsequently, 100 μl of HCSS treated for each concentration was added, and then the fluorescence of dichlorofluorescein (DCF) oxidized with active oxygen in the early stage was measured with a fluorescent plate reader (Ex; 485 nm, and Em; 530 nm). Subsequently, irradiation with UVB (20 mJ/cm^2) was performed, and the fluorescence after the sample treatment was measured by a fluorescent plate reader (Ex; 485 nm, and Em; 530 nm).

The next assay deals with type 1 procollagen. Kind of assay: Type 1 procollagen biosynthesis promoting effect (procollagen type-1 C-peptide EIA). Type of assay: cell-based. As to conditions: sample 0.001 weight %; human dermal fibroblasts, 24 hours. On the procedure: Human dermal fibroblasts isolated from neonatal foreskin tissues were distributed from Modern Tissue Technology (MTT, Korea), and a 10% fetal bovine serum (FBS) was added to a medium of DMEM/F-12 (3:1) and cultured at the concentration of 1×10^4 cell/cm^2. At about 70% to 80% confluence, the cells were inoculated at a ratio of 1:3 and subcultured, and the cells subcultured for the third to fourth generations were used in the experiment.
For experiments to measure the amount of procollagen, the fibroblasts were cultured by more than 90% in a 48-well plate, and then each of […], and an amount of collagen isolated in the medium after 24 hours was measured by using a procollagen type-1 C-peptide EIA kit (MK101, Takara, Japan).

The test system of a further assay is MMP-1. Kind of assay: MMP-1 expression inhibition after UVA irradiation (ELISA). Type of assay: cell-based. As to conditions: retinol, concentration not given; human dermal fibroblasts, UVA 6.3 J/cm^2, 24 hours. On the procedure:
Human dermal fibroblasts were irradiated with UVA at an energy of 6.3 J/cm^2 by using a UV chamber. With respect to UV irradiation dose and culture time, conditions for maximizing an MMP expression amount in fibroblasts were established by preliminary experiments. A negative control was wrapped in silver foil and kept for the same period of time in the UVA environment. A UVA emission amount was measured by using a UV radiometer. The cells during the UVA irradiation were the same medium inoculated before without change and were exchanged with a medium containing the samples after UVA irradiation. The medium was collected after culturing for 24 hours, and 96 wells were coated with the medium. A primary antibody (MMP-1 (Ab-5) monoclonal antibody) was treated and reacted at 37° C. for 60 minutes. After an anti-mouse IgG (whole mouse, alkaline phosphatase conjugated), which was a secondary antibody, was reacted again for about 60 minutes, the alkaline phosphatase substrate solution (1 mg/ml p-nitrophenyl phosphate in diethanolamine buffer solution) was reacted at room temperature for 30 minutes, and then an absorbance was measured at 405 nm with a plate reader. As a control, a medium to which the sample was not added was used.

As for `Cc1cc(C(C)(C)C)c(O)c(C(C)(C)C)c1` [BHT, butylated hydroxytoluene], the “Antioxidant effect (active oxygen scavenging) (%)” value in assay [1] worked out at 87%. Moreover, the “Free radical scavenging activity (%)” value in assay [2] is given as 81%.
In the case of `O=C(O[C@@H]1Cc2c(O)cc(O)cc2O[C@@H]1c1cc(O)c(O)c(O)c1)c1cc(O)c(O)c(O)c1` [EGCG], the “Active oxygen scavenging effect (%)” value in assay [3] was found to be 45%.
With TGF-β, the “Procollagen biosynthesis promoting effect (%)” value in the assay on type 1 procollagen stood at 35%.
As for `CC1=C(/C=C/C(C)=C/C=C/C(C)=C/CO)C(C)(C)CCC1` [Retinol, retinol], in the assay with MMP-1, the “MMP-1 expression inhibition rate (%)” value is 38%.
